Results on 6 molecules are retold here after patent publication US11339193B2, “CDP protein secretion inhibitors” (KEZAR LIFE SCIENCES, priority 2018, dated 2022).

Like-named read-outs stand apart in the source and are kept apart here. Numbered stars: 1 amine (or outer) side, 2 acyl side, 3 side chain; on linkers, the order of the positions; unused ones are H or OH. Square brackets hold non-standard residues; d marks the D form. Peptide text beside a SMILES is read from it. NMeAla(5-Cl-benzothien-3-yl) = CN[C@@H](Cc1csc2ccc(Cl)cc12)C(=O)O; X13 = CN([C@@H](Cc1cn(Cc2ccc(Br)cc2)c2ccc(F)cc12)C(=O)[*:2])[*:1]; Ala(1-cyclohexenyl) = N[C@@H](CC1=CCCCC1)C(=O)O; Butanoyl(2R-oxy,4-CN) = N#CCC[C@@H](O)C(=O)O; X21 = CN([C@@H](CC1=CCCC1)C(=O)[*:2])[*:1]; Abu(4,4,4-F3) = N[C@@H](CC(F)(F)F)C(=O)O; X12 = O=C([C@H](CC1=CCCC1)N[*:1])[*:2]; NMeL = CN[C@@H](CC(C)C)C(=O)O; NMeA = CN[C@@H](C)C(=O)O Bounds are passed on as bounds.

Type in all cases: cell-based
The subject of assay [1] is PD1-ss+10aa/Gaussia Luciferase. Kind of assay: Dox induced PD1-ss-Gluc assay. The note with it: Flp-In 293 T-REx cells, doxycycline, 24 hours; read-out: PD1ss Gluc IC50. An excerpt: Dox Induced PD1-ss-Gluc Assay
(§1) Flp-In 293 T-REx™ cells were transfected with pcDNA™5/FRT/TO plasmid inserted with cDNA encoding Gaussia Luciferase fused to the 3′ end of cDNA encoding PD1 signal sequence plus 10 amino acids (N-[…]-C) (SEQ ID NO:3). Transfected cells were selected for resistance to the selectable markers Hygromycin and Blasticidin to create a stable cell line that contained the PD1-ss+10aa/Gaussia Luciferase cDNA insert whose expression was regulated under the T-REx™ system. The day before assay, cells were trypsinized and plated in 384-well tissue culture plates. The next day, compound dilutions in DMSO/media containing doxycycline were added to the wells and incubated at 37° C., 5% CO2.

For assay [2], the system named is TNFα-FL/Gaussia Luciferase. Kind of assay: Dox induced TNFα-FL-Gluc assay. To be noted: read-out: TNFa FL Gluc IC50. An excerpt: Dox Induced TNFα-FL-Gluc Assay
Flp-In 293 T-REx™ cells were transfected with pcDNA™5/FRT/TO plasmid inserted with cDNA encoding Gaussia Luciferase fused to the 3′ end of cDNA encoding full length TNFα (amino acids 1-233). Transfected cells were selected for resistance to the selectable markers Hygromycin and Blasticidin to create a stable cell line that contained the TNFα-FL/Gaussia Luciferase cDNA insert whose expression was regulated under the T-REx™ system. The day before assay, cells were trypsinized and plated in 384-well tissue culture plates. The next day, compound dilutions in DMSO/media containing doxycycline were added to the wells and incubated at 37° C., 5% CO2.

Assay [3] relates to NCI-H929 multiple myeloma cell line. Kind of assay: H929 assay (cell viability, Celltiter-Glo). The note with it: Homo sapiens, NCI-H929, read-out: H929 EC50. On the procedure: The human multiple myeloma cell line NCI-H929 was cultured in Advanced RPMI 1640 media (Gibco@) supplemented with 6% fetal bovine serum, 2 mM Glutamine, and 1× Penicillin/Streptomycin. On the day of assay, cells were resuspended in RPMI 1640 media supplemented with 10% fetal bovine serum, 2 mM Glutamine, and 1× Penicillin/Streptmycin and plated in 384-well tissue culture plates and treated with compound dilutions in DMSO/media. Plates were incubated at 37° C., 5% CO2 for 48 hours. After 48 hours, Celltiter-Glo@ (Promega) was added to each well and luciferase signal was quantified using Tecan Infinite M1000 Pro for cell viability determination.
(In ATP-based viability assays light output follows the ATP content of the culture.)

Assay [4] relates to Prl-ss+10aa/Gaussia Luciferase. Kind of assay: Prl-ss-Gluc assay (constitutively active or 24 hr Dox inducible). The note with it: read-out: Prl IC50.
Text: Constitutively Active Prl-ss-Gluc Assay
Flp-In 293 T-REx™ cells were transfected with pcDNA™5/FRT plasmid inserted with cDNA encoding Gaussia Luciferase fused to the 3′ end of cDNA encoding Prl signal sequence plus 10 amino acids (N-[…]-C) (SEQ ID NO:4). Transfected cells were selected for resistance to the selectable markers Hygromycin and Blasticidin to create a stable cell line that constitutively expressed the Prlss+10aa/Gaussia Luciferase fusion protein. The day before assay, cells were trypsinized and plated in 384-well tissue culture plates. The next day, culture media was removed from the wells and replaced with fresh media. Compound dilutions in DMSO/media were added to the wells and incubated at 37° C., 5% CO2.
24 hr Dox Inducible Prl-ss-Gluc Assay
as §1, with “Prl” for “PD1”, “NO:5).” for “NO:3).”, “Prl-ss+10aa/Gaussia” for “PD1-ss+10aa/Gaussia”

In another assay the test system is HER3ss-Gluc. The experiment in a line: HER3ss assay. To be noted: HEK-293T T-rex cells, transient transfection, doxycycline, 24 h; read-out: HER3 ss IC50. On the procedure:
The mature domain of secreted luciferase from Gaussia princeps (GLuc) was cloned into pcDNA5/FRT/TO. The signal sequence plus four amino acids of the mature domain from HER3 ([…]) (SEQ ID NO:8) were cloned upstream of GLuc mature domain and used in transient transfection experiment. HEK-293T T-rex cells were cultured in Dulbecco's modified Eagle's medium with 10% FBS at 5% CO2. Cells were plated 1×10e6 cells per well in a 6-well plate and incubated for 6 h. Cells were transiently transfected with HER3ss-Gluc using Lipofectamine 2000 (Invitrogen). After overnight incubation, transfected cells were replated in a clear-bottomed, black 96-well plate at a density of 20,000 cells per well. Six hours after plating, the cells were treated with doxycycline (1 μg/ml) and increasing concentrations of the indicated compounds for 24 h. Secreted luciferase in the conditioned media was quantified by luminescence using the BioLux Gaussia Luciferase Assay Kit (New England Biolabs, Ipswich, Mass., USA) and a SpectraMax M5 plate reader (Molecular Devices).

For assay [5], the system named is U266B1 multiple myeloma cell line. The experiment in a line: U266 assay (cell viability, Celltiter-Glo). The note with it: Homo sapiens, U-266. On the procedure:
Cells were plated in 384-well tissue culture plates and treated with compound dilutions in DMSO/media. Plates were incubated at 37° C., 5% CO2 for 48 hours. After 48 hours, Celltiter-Glo@ (Promega) was added to each well and luciferase signal was quantified using Tecan Infinite M1000 Pro for cell viability determination.

Where [6] appears, read: Flp-In 293 T-REx cells, doxycycline, 24 hours.
The mark [7] stands for this setting: Flp-In 293 T-REx cells, 24 hours.

As usually defined, the IC50 is the concentration that gives 50% inhibition. As usually defined, the EC50 is the concentration at which the effect is half-maximal. As for `CC(C)C[C@@H]1NC(=O)[C@H](Cc2csc3ccc(Cl)cc23)N(C)C(=O)[C@H](CC(C)C)NC(=O)[C@H](CC2=CCCC2)N(C)C(=O)[C@H](CC(F)(F)F)NC(=O)[C@@H](CCC#N)OC(=O)[C@H](C)N(C)C1=O` [C-81] (cyclo(L[NMeA][Butanoyl(2R-oxy,4-CN)][Abu(4,4,4-F3)][X21]L[NMeAla(5-Cl-benzothien-3-yl)])), the IC50 in assay [1] was 934 nM; in assay [2] (I.A.), more than 25000 nM; in assay [4] (I.A.) it was more than 25000 nM; with HER3ss-Gluc, 88 nM. Moreover, the EC50 was more than 25 µM in assay [3] (I.A.) and more than 25000 nM in assay [5] (I.A.).

For the molecule `CC(C)C[C@@H]1NC(=O)[C@H](Cc2cn(Cc3ccc(Br)cc3)c3ccc(F)cc23)N(C)C(=O)[C@H](CC(F)(F)F)NC(=O)[C@H](CC(C)C)N(C)C(=O)[C@H](CC(F)(F)F)NC(=O)[C@@H](CCC#N)OC(=O)[C@H](C)N(C)C1=O` [C-82] (cyclo(L[NMeA][Butanoyl(2R-oxy,4-CN)][Abu(4,4,4-F3)][NMeL][Abu(4,4,4-F3)][X13])), the IC50 in assay [1] was 42 nM; in assay [2] (setting [6]), 104 nM; in assay [4] (setting [7]), 506 nM; in the assay on HER3ss-Gluc, 98 nM. The EC50 is 0.649 µM in assay [3] (48 hours, cell viability) and more than 25000 nM in assay [5] (I.A.).

As to `CC(C)C[C@@H]1NC(=O)[C@H](Cc2csc3ccc(Cl)cc23)N(C)C(=O)[C@H](CC2=CCCCC2)NC(=O)[C@H](CC(C)C)N(C)C(=O)[C@H](CC(F)(F)F)NC(=O)[C@@H](CCC#N)OC(=O)[C@H](C)N(C)C1=O` [C-97] (cyclo(L[NMeA][Butanoyl(2R-oxy,4-CN)][Abu(4,4,4-F3)][NMeL][Ala(1-cyclohexenyl)][NMeAla(5-Cl-benzothien-3-yl)])), the IC50 in assay [1] was 709 nM; in assay [2] (I.A.), more than 25000 nM; in assay [4] (I.A.), more than 25000 nM; in the assay with HER3ss-Gluc it was 6 nM. The EC50 in assay [3] (48 hours, cell viability, μM) is more than 20 µM; in assay [5] (I.A.) it was more than 25000 nM.

On to `CC(C)C[C@@H]1NC(=O)[C@H](Cc2csc3ccc(Cl)cc23)N(C)C(=O)[C@H](CC(C)C)NC(=O)[C@H](CC(C)C)N(C)C(=O)[C@H](CC2=CCCC2)NC(=O)[C@@H](CCC#N)OC(=O)[C@H](C)N(C)C1=O` [C-98] (cyclo(L[NMeA][Butanoyl(2R-oxy,4-CN)][X12][NMeL]L[NMeAla(5-Cl-benzothien-3-yl)])), for which the IC50 was found to be 259 nM in assay [1], 889 nM in assay [2] (setting [6]), 17900 nM in assay [4] (setting [7]) and 35 nM in the assay with HER3ss-Gluc. Moreover, the EC50 in assay [3] (48 hours, cell viability) was 4 µM; in assay [5] (I.A.), more than 25000 nM.

With `CC(C)C[C@@H]1NC(=O)[C@H](CC(C)C)N(C)C(=O)[C@H](CC(F)(F)F)NC(=O)[C@@H](CCC#N)OC(=O)[C@H](C)N(C)C(=O)[C@H](CC2=CCCCC2)NC(=O)[C@H](Cc2csc3ccc(Cl)cc23)N(C)C1=O` [C-88] (cyclo(L[NMeAla(5-Cl-benzothien-3-yl)][Ala(1-cyclohexenyl)][NMeA][Butanoyl(2R-oxy,4-CN)][Abu(4,4,4-F3)][NMeL])), the IC50 in assay [1] is 149 nM; in assay [2] (setting [6]), 1380 nM; in assay [4] (I.A.), more than 25000 nM; in the assay on HER3ss-Gluc, 65 nM. Further, the EC50 in assay [3] (48 hours, cell viability) was 5.64 µM; in assay [5] (I.A.), more than 25000 nM.

For `CC(C)C[C@@H]1NC(=O)[C@H](Cc2csc3ccc(Cl)cc23)N(C)C(=O)[C@H](CC(C)C)NC(=O)[C@H](CC(C)C)N(C)C(=O)[C@H](CC(C)C)NC(=O)[C@@H](CCC#N)OC(=O)[C@H](C)N(C)C1=O` [C-93] (HELM PEPTIDE1{L.[meA].[N#CCC[C@@H](O[*:1])C(=O)[*:2]].L.[meL].L.[CN([C@@H](Cc1csc2ccc(Cl)cc12)C(=O)[*:2])[*:1]]}$PEPTIDE1,PEPTIDE1,1:R1-7:R2$$$V2.0), the IC50 in assay [1] came to 278 nM; in assay [2] (setting [6]), 672 nM; in assay [4] (setting [7]), 5700 nM; with HER3ss-Gluc it was 38 nM. Moreover, the concentration giving a half-maximal response (EC50) in assay [3] (48 hours, cell viability) is 3.39 µM; in assay [5] (48 hours, cell viability), 16200 nM.
